Measured values published in ChEMBL document CHEMBL1201862, “PubChem BioAssay data set” (2004).
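Interpolation was linear, between the two tested concentrations surrounding the appropriate level; five concentrations were tested over 48 hours in 96-well plates. GI50: concentration for 50% inhibition of growth.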 Calls of active or inactive are those of the source. No stated cut-off is given here; in the data, active = GI50 up to about 1.1 µM and inactive = higher.

How the values were obtained:
Experiment in all cases: NCI anticancer screen, dose series, 48 h
KM12 = test system: KM12
MDA-N = test system: MDA-N
M14 = test system: M14
ACHN = test system: ACHN
LOX IMVI = test system: LOX IMVI
PC-3 = test system: PC-3
UACC-62 = test system: UACC-62
NCI-H460 = test system: NCI-H460
NCI-H23 = test system: NCI-H23
SK-MEL-28 = test system: SK-MEL-28
UO-31 = test system: UO-31
SW-620 = test system: SW-620
A549 = test system: A549
Hs-578T = test system: Hs-578T
K562 = test system: K562
EKVX = test system: EKVX
SK-MEL-2 = test system: SK-MEL-2
OVCAR-3 = test system: OVCAR-3
CCRF-CEM = test system: CCRF-CEM
HT-29 = test system: HT-29
MDA-MB-435 = test system: MDA-MB-435
HOP-62 = test system: HOP-62
IGROV-1 = test system: IGROV-1
OVCAR-5 = test system: OVCAR-5
COLO 205 = test system: COLO 205
RPMI-8226 = test system: RPMI-8226
HCT-15 = test system: HCT-15
NCI/ADR-RES = test system: NCI/ADR-RES
SR = test system: SR
CAKI-1 = test system: CAKI-1
TK-10 = test system: TK-10
HCC 2998 = test system: HCC 2998
SF-539 = test system: SF-539
SK-MEL-5 = test system: SK-MEL-5
SN12C = test system: SN12C
OVCAR-8 = test system: OVCAR-8
MOLT-4 = test system: MOLT-4
MCF7 = test system: MCF7
SF-295 = test system: SF-295
SNB-19 = test system: SNB-19
UACC-257 = test system: UACC-257
NCI-H522 = test system: NCI-H522
HCT-116 = test system: HCT-116
SF-268 = test system: SF-268
786-0 = test system: 786-0
DU-145 = test system: DU-145
T47D = test system: T47D

Measured: GI50

COc1ccc(C2c3cc4c(cc3OC(N3CCOCC3)C2C)OCO4)c(OC)c1OC (configuration not stated)
inactive: KM12 5.55 µM | MDA-N 2.45 µM | M14 8.22 µM | ACHN 16.1 µM | LOX IMVI 14.5 µM | PC-3 13.6 µM | UACC-62 13.5 µM | NCI-H460 20.5 µM | NCI-H23 33.7 µM | SK-MEL-28 14.2 µM | UO-31 6.81 µM | SW-620 11.1 µM | A549 22.9 µM | Hs-578T 2.88 µM | K562 4.34 µM | EKVX 24.2 µM | SK-MEL-2 12.2 µM | OVCAR-3 11 µM | CCRF-CEM 13 µM | HT-29 14 µM | MDA-MB-435 2.51 µM | HOP-62 26.9 µM | IGROV-1 15.1 µM | OVCAR-5 17.1 µM | COLO 205 14.6 µM | RPMI-8226 13.2 µM | NCI/ADR-RES 12.1 µM | SR 9.06 µM | CAKI-1 2.51 µM | TK-10 15.5 µM | HCC 2998 10.8 µM | SF-539 12.6 µM | SK-MEL-5 10.1 µM | SN12C 26.3 µM | OVCAR-8 24.7 µM | MOLT-4 10.6 µM | MCF7 10.9 µM | SF-295 5.97 µM | SNB-19 10.7 µM | UACC-257 15.9 µM | NCI-H522 6.89 µM | HCT-116 10.3 µM | SF-268 17.4 µM | 786-0 17.1 µM | DU-145 > 10 µM | T47D 20.6 µM
6.93 µM: HCT-15
